According to US20090055945A1, “Method for Producing Nuclear-Transplanted Egg” (priority 2005, published 2009):

Assays:
[1] = tested on: oocytes injected with nuclear domains of round spermatids (ROSI); assay: Paternal genome DNA methylation, spermatid injection (ROSI); assay type: cell-based, mouse; details: Spermatid (ROSI); 10 μM 5-azacytidine, 20 hours
Procedure: (§1) The oocytes injected with the nuclear domains of round spermatids obtained by ROSI were cultured for 20 hours in the presence of 20 ng/ml of demecolcine in a medium containing 10 μM 5-azacytidine (5-aza) or 500 nM TSA as an anti-methylation agent. Similarly, injection of mature sperms was carried out (ICSI (intracytoplasmic sperm injection)). Specifically, heads of sperms were separated from the tails by applying pulses to the head-tail junctions by means of a piezo-driven pipette (PrimeTech), and injected into oocytes. The oocytes were not subjected to activation in this case.
The cultured oocytes injected with nuclei were fixed in PBS containing 4% paraformaldehyde at 4° C. overnight, washed in PBS containing 0.1% polyvinyl alcohol (PVA), and blocked in PBS containing 3% bovine serum albumin (BSA) and 0.2% Triton X-100 at 4° C. overnight. Subsequent steps were carried out at room temperature. The fixed oocytes injected with nuclei were permeabilized by treating with 0.2% Triton X-100 in PBS at room temperature. The oocytes were then treated with 2N HCl at room temperature for 50 minutes, neutralized in 100 mM Tris-HCl buffer (pH 8.0) (Non-patent Document 15), and extensively washed with PBS containing 1% BSA.
Next, incubation. with an anti-5-methylcytidine antibody (Eurogentec) in PBS containing 0.1% PVA was carried out for 2 to 3 hours. After extensively being washed, oocytes were stained with Alexa Flour-488 secondary antibody (Molecular Probes), stained with 5 μg/ml 4′,6′-diamidino-2-phenylindole (DAPI) for 30 minutes, and mounted using Vectashield (Vector Laboratory). The specimens were observed using Olympus BX51 microscope (Olympus). All images were captured with DP70 Olympus digital camera using Olympus Analysis software to apply colors to DAPI-stained DNA and merged images.
(§2) For quantitative analysis of pronuclear DNA methylation levels, fluorescence images were subjected to densitometric analysis using the program Image-J from the National Institute of Health (http://rsb.info.nih.gov/ij/). For each pronucleus, the relative intensity of methylation of the paternal genome was calculated as a percentage of the fluorescence intensity of the maternal genome. In Table 3, data with (b) and without (a) anti-methylation agent were statistically analyzed by Scheffe tests for multiple mean comparisons using the statistical program SPSS version 12.0 (SPSS Inc.). All percentile data were subjected to arcsine transformation prior to the statistical analysis.

[2] = tested on: oocytes injected with mature sperm (ICSI); assay: Paternal genome DNA methylation, mature sperm injection (ICSI); assay type: cell-based, mouse; details: 10 μM 5-azacytidine, 20 hours
Procedure: as §1, with “case. […]” for “case.”
as §2, with “All percentile data were subjected to arcsine transformation prior to the statistical analysis.” left out

[3] = tested on: immortalized bovine mammary epithelial cells (MECL) or bovine fetal fibroblasts (BFF); details: MECL or BFF treated before nuclear transfer; Non-patent Document 2; cited from earlier work
[4] = tested on: nuclear transfer oocytes (nuclei from cumulus cells in enucleated oocytes); assay: Expanded blastocyst formation of nuclear transfer oocytes (cumulus cell nuclei); assay type: cell-based, mouse; details: 5 μM apicidin
Procedure: Production of cloned mice including production of nuclear transfer embryos was carried out according to the method as described in Non-patent Document 5. Briefly, pregnant mare serum gonadotrophin (PMSG) was first administered to 8-weeks-old female B6D2F1 (C57BL/6 XDBA/2) mice (Japan SLC) for superovulation treatment. Human choriogonadotropin (hCG) was administered after 48 hours. Oocytes were collected after 16 hours. Nuclei were removed from the collected unfertilized oocytes in the presence of 5 μg/ml of cytochalasin B using a micromanipulator (enucleation).
Next, cell membranes of cumulus cells from a B6D2F1 mouse as donor somatic cells suspended in a 1.2% polyvinylpyrrolidone (PVP) solution were destroyed using an injection pipette, and the nuclei were injected into the enucleated oocytes using a micromanipulator (nuclear transfer). A piezo drive apparatus (Prime Tech) was used to generate piezo-pulses for penetration of zona pellucida or cell membranes which is required for injection of nuclei.
The thus obtained nuclear transfer oocytes were cultured in a CO2 incubator at 37° C. for 30 minutes to 1 hour. The oocytes were then transferred to an oocyte activation solution (Ca^2+-free CZB medium supplemented with 5 mM strontium chloride (SrCl2) and 5 μg/ml of cytochalasin B (Non-patent Document 10)) containing 0.5, 5, 50 or 500 nM trichostatin A (hereinafter referred to as TSA) to artificially activate the oocytes and initiate the development. Activation of oocytes was confirmed 6 hours after the initiation of activation using pronuclei formation as an index. Activated nuclear transfer oocytes were transferred to KSOM medium (Specialty Media) containing TSA at the same concentration, and cultured for further 14 hours (for 20 hours after the initiation of activation) in the medium. For a control, dimethyl sulfoxide (DMSO), which was used for dissolving TSA, was used in place of TSA to produce the same concentration.
Then, the nuclear transfer embryos at the 2-cell stage were cultured in KSOM medium without TSA until 96 hours after the initiation of activation, and development into expanded blastocysts was observed. The development into expanded blastocyst was confirmed by culturing for 96 hours after the initiation of activation and then observing under a microscope one in which the volume of embryo was increased to result in expansion of the blastocyst and thinning of zona pellucida among blastocysts having blastocoels. 80 or more embryos were examined in each of the experimental groups of the respective concentrations.
The ratio of the developed blastocysts to the number of nuclear transfer oocytes used (blastocyst formation rate (%)) was determined. The ratio of the developed expanded blastocysts to the number of oocytes that initiated cleavage (i.e., developed into the 2-cell stage) among the reconstructed nuclear transfer oocytes (blastocyst formation rate (%)) was determined.
Nuclear transfer oocytes were produced by injecting nuclei from cumulus cells into enucleated oocytes according to the method as described in Example 1, cultured in KSOM medium containing TSA at a concentration of 5 nM for various periods of time (for 0, 24, 48 or 72 hour(s) from the initiation of activation), and then cultured in KSOM medium without TSA until 96 hours after the initiation of activation. Then, development into expanded blastocysts was observed and the blastocyst formation rate was determined. […]

## Nc1ncn([C@@H]2O[C@H](CO)[C@@H](O)[C@H]2O)c(=O)n1 [5-aza, 5-azacytidine]
[1]
  Ratio of methylation level of paternal genome to maternal genome (%): 54.9^b %
[2]
  Ratio of methylation level of paternal genome to maternal genome (%): 17.5^b %

## CCCC(=O)[O-].[Na+] [sodium butyrate]
[3]
  blastocyst development rate: increased

## CCC(=O)CCCCC[C@@H]1NC(=O)[C@H]2CCCCN2C(=O)[C@H]([C@@H](C)CC)NC(=O)[C@H](Cc2cn(OC)c3ccccc23)NC1=O [apicidin]
[4]
  increase in blastocyst formation rate vs control: about 2 fold
[4]; method of Example 1
  blastocyst formation rate: 69.0%
